Results as given in article PMC10590419, “Structural and mechanistic insights into the inhibition of respiratory syncytial virus polymerase by a non-nucleoside inhibitor” (Communications Biology, 2023).
Read-outs that look alike come from different tables or passages of the source.

Molecular target: recombinant RSV L+P (Human respiratory syncytial virus A, UniProt P28887)
Test: Primed single nucleotide incorporation (SNI) gel assay, recombinant RSV L+P
Type: biochemical, Human RSV (strain A2)
Protocol: RNA polymerase reaction samples consisted of 0.2 μM recombinant RSV L-P polymerase, 0.2 μM of an RNA template (Le11 or Tr14), and 400 μM of a short primer (sequences as indicated in the figures), mixed in a buffer containing 50 mM Tris pH 7.4, 2 mM dithiothreitol and 6 mM MgCl2. For the assay in Fig. 1d, reactions were started by adding 100 nM [α-^32P]GTP (3000 Ci/mmol) tracer and incubated at 30 °C for 10 min. […] Reactions were stopped by adding an equal volume of gel loading buffer containing 90% formamide, 50 mM EDTA, 0.05% Xylene Cyanol, and Bromophenol Blue. Samples were denatured at 95 °C for 5 min and run on a 22.5% polyacrylamide urea sequencing gel at 80 W. The gel was transferred onto a Whatman cellulose chromatography paper (Millipore Sigma) and dried on a gel dryer (Bio-Rad) for 1 h. The dried gel was exposed to a phosphor-screen, scanned on a Typhoon phosphorimager (GE Healthcare), and quantified using ImageQuant (GE Healthcare).

[1] = 5 µM, le-11, +1 site, replicates, 5 µM
[2] = 5 µM, le-11, +3 site, replicates, 5 µM
[3] = 5 µM, tr-14, +1 site, replicates, 5 µM
[4] = le-11, +1 site, 0.00390625 uM, replicates, 0.00390625 µM
[5] = le-11, +1 site, 0.0078125 uM, replicates, 0.0078125 µM
[6] = le-11, +1 site, 0.015625 uM, replicates, 0.015625 µM
[7] = le-11, +1 site, 0.03125 uM, replicates, 0.03125 µM
[8] = le-11, +1 site, 0.0625 uM, replicates, 0.0625 µM
[9] = le-11, +1 site, 0.125 uM, replicates, 0.125 µM
[10] = le-11, +1 site, 0.25 uM, replicates, 0.25 µM
[11] = le-11, +1 site, 0.5 uM, replicates, 0.5 µM

Sequence of recombinant RSV L+P (P28887 whole entry): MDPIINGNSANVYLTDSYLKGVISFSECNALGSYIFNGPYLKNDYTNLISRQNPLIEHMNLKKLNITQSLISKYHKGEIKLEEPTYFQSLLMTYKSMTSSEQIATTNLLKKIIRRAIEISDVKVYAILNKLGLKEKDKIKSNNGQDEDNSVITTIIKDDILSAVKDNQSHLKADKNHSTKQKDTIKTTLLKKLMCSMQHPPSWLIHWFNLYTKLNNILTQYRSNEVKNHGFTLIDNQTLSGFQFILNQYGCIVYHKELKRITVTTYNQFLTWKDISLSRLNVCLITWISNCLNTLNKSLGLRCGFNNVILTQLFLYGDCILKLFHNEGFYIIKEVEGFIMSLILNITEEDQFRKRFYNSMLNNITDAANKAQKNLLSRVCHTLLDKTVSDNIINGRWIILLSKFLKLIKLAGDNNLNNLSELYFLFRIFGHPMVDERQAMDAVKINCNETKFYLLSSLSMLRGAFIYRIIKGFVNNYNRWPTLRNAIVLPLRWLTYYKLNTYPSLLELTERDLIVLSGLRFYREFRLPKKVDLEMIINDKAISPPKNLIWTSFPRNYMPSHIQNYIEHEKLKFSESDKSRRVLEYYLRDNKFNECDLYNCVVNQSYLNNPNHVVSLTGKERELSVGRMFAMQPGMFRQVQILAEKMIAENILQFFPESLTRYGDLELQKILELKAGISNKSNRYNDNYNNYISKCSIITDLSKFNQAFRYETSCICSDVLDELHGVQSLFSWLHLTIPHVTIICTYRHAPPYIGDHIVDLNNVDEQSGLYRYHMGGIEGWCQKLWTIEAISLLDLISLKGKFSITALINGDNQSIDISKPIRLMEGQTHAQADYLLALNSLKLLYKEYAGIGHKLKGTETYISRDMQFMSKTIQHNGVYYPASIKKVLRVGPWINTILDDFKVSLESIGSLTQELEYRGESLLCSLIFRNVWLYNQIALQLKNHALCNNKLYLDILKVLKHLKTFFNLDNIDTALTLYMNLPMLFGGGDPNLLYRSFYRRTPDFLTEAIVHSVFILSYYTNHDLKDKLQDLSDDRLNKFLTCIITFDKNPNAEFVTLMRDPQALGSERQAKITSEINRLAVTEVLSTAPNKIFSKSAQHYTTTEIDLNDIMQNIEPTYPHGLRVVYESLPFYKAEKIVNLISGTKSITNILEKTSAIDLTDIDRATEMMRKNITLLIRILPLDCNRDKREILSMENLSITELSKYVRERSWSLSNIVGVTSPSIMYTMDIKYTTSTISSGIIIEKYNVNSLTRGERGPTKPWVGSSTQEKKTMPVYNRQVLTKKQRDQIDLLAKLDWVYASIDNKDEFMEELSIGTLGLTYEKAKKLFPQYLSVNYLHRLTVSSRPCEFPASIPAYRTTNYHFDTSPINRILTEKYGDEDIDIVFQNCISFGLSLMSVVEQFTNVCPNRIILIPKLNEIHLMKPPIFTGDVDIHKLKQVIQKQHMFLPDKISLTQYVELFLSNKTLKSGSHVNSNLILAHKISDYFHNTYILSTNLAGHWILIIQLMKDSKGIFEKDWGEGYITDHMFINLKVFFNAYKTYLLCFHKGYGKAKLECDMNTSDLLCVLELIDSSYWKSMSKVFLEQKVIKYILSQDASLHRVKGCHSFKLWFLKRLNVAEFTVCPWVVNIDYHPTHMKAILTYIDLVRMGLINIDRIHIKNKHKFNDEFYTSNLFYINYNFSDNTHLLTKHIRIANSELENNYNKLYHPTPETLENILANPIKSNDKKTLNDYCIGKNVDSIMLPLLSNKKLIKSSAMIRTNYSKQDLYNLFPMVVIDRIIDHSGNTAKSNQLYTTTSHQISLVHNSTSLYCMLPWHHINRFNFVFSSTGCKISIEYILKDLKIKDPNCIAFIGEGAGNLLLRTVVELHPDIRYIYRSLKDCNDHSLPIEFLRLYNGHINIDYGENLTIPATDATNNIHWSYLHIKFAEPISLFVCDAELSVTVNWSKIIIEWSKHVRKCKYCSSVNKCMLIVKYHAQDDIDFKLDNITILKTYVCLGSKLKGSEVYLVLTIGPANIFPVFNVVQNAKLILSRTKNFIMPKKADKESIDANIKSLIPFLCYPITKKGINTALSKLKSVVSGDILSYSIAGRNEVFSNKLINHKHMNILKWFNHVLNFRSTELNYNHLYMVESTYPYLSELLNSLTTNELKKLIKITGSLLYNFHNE
Sequence of recombinant RSV L+P (P03421 whole entry, further chain): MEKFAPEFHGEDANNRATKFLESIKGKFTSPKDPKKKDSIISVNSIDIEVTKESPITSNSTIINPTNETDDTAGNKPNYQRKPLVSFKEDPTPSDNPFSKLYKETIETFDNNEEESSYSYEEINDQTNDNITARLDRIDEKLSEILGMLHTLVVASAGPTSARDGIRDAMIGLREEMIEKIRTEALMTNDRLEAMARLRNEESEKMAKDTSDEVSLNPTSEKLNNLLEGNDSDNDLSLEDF

COc1cc(C(=O)NC[C@](O)(c2cc(C(C)(C)O)c(F)c(-c3ccc(F)cc3)n2)C(F)(F)F)cc2cc(C)nnc12 [JNJ-8003]
inhibition at 5 µM (5 µM, le-11, +1 site, N 2, read-out: % inhibition of SNI, AC>ACG, average): 88.8% | inhibition at 5 µM (5 µM, le-11, +1 site, N 2, read-out: % inhibition of SNI, ACG>ACGC, average): 2.75% | inhibition at 5 µM (5 µM, le-11, +1 site, N 2, read-out: % inhibition of SNI, ACGC>ACGCG, average): 94.8% | inhibition at 5 µM (5 µM, le-11, +1 site, N 2, read-out: % inhibition of SNI, ACGCG>ACGCGA, average): 96.9% | inhibition at 5 µM (5 µM, le-11, +1 site, N 2, read-out: % inhibition of SNI, ACGCGA>ACGCGAA, average): 85.3% | % inhibition of SNI, AC>ACG [1]: 88.48% | % inhibition of SNI, ACGC>ACGCG [1]: 96.78% | % inhibition of SNI, ACGCG>ACGCGA [1]: 98.45% | % inhibition of SNI, ACGCGA>ACGCGAA [1]: 88.02% | inhibition at 5 µM (5 µM, le-11, +1 site, replicates, read-out: % inhibition of SNI, AC>ACG): 89% | inhibition at 5 µM (5 µM, le-11, +1 site, replicates, read-out: % inhibition of SNI, ACGC>ACGCG): 92.7% | inhibition at 5 µM (5 µM, le-11, +1 site, replicates, read-out: % inhibition of SNI, ACGCG>ACGCGA): 95.4% | inhibition at 5 µM (5 µM, le-11, +1 site, replicates, read-out: % inhibition of SNI, ACGCGA>ACGCGAA): 82.6% | inhibition at 5 µM (5 µM, le-11, +3 site, N 2, read-out: % inhibition of SNI, GC>GCG, average): 96.5% | inhibition at 5 µM (5 µM, le-11, +3 site, N 2, read-out: % inhibition of SNI, GCG>GCGA, average): 74.8% | inhibition at 5 µM (5 µM, le-11, +3 site, N 2, read-out: % inhibition of SNI, GCGA>GCGAA, average): 97.6% | inhibition at 5 µM (5 µM, le-11, +3 site, N 2, read-out: % inhibition of SNI, GCGAA>GCGAAA, average): 93.8% | % inhibition of SNI, GC>GCG [2]: 97.71% | % inhibition of SNI, GCG>GCGA [2]: 79.85% | % inhibition of SNI, GCGA>GCGAA [2]: 98.25% | % inhibition of SNI, GCGAA>GCGAAA [2]: 91.04% | inhibition at 5 µM (5 µM, le-11, +3 site, replicates, read-out: % inhibition of SNI, GC>GCG): 95.3% | inhibition at 5 µM (5 µM, le-11, +3 site, replicates, read-out: % inhibition of SNI, GCG>GCGA): 69.8% | inhibition at 5 µM (5 µM, le-11, +3 site, replicates, read-out: % inhibition of SNI, GCGA>GCGAA): 97% | inhibition at 5 µM (5 µM, le-11, +3 site, replicates, read-out: % inhibition of SNI, GCGAA>GCGAAA): 96.5% | inhibition at 5 µM (5 µM, tr-14, +1 site, N 2, read-out: % inhibition of SNI, AC>ACG, average): 88.2% | inhibition at 5 µM (5 µM, tr-14, +1 site, N 2, read-out: % inhibition of SNI, ACG>ACGA, average): 8.03% | inhibition at 5 µM (5 µM, tr-14, +1 site, N 2, read-out: % inhibition of SNI, ACGA>ACGAG, average): 95% | inhibition at 5 µM (5 µM, tr-14, +1 site, N 2, read-out: % inhibition of SNI, ACGAG>ACGAGA, average): 88.8% | inhibition at 5 µM (5 µM, tr-14, +1 site, N 2, read-out: % inhibition of SNI, ACGAGA>ACGAGAA, average): 90% | % inhibition of SNI, AC>ACG [3]: 84.25% | % inhibition of SNI, ACGA>ACGAG [3]: 93.02% | % inhibition of SNI, ACGAG>ACGAGA [3]: 89.36% | % inhibition of SNI, ACGAGA>ACGAGAA [3]: 89.66% | inhibition at 5 µM (5 µM, tr-14, +1 site, replicates, read-out: % inhibition of SNI, AC>ACG): 92.2% | inhibition at 5 µM (5 µM, tr-14, +1 site, replicates, read-out: % inhibition of SNI, ACGA>ACGAG): 96.9% | inhibition at 5 µM (5 µM, tr-14, +1 site, replicates, read-out: % inhibition of SNI, ACGAG>ACGAGA): 88.2% | inhibition at 5 µM (5 µM, tr-14, +1 site, replicates, read-out: % inhibition of SNI, ACGAGA>ACGAGAA): 90.3% | SNI to the 3-mer primer from the +1 site (in words) (le and tr promoter RNA): did not inhibit | pACG formation, % inhibition [4]: 21.7616% | pACGCG formation, % inhibition [4]: 22.5312% | inhibition at 0.00390625 µM (le-11, +1 site, 0.00390625 uM, replicates, read-out: pACG formation, % inhibition): 15.7% | inhibition at 0.00390625 µM (le-11, +1 site, 0.00390625 uM, replicates, read-out: pACGC formation, % inhibition): 22.3% | inhibition at 0.00390625 µM (le-11, +1 site, 0.00390625 uM, replicates, read-out: pACGCG formation, % inhibition): 29.7% | pACG formation, % inhibition [5]: 22.0299% | pACGCG formation, % inhibition [5]: 31.4378% | inhibition at 0.0078125 µM (le-11, +1 site, 0.0078125 uM, replicates, read-out: pACG formation, % inhibition): 27.9% | inhibition at 0.0078125 µM (le-11, +1 site, 0.0078125 uM, replicates, read-out: pACGC formation, % inhibition): 23.6% | inhibition at 0.0078125 µM (le-11, +1 site, 0.0078125 uM, replicates, read-out: pACGCG formation, % inhibition): 35.9% | pACG formation, % inhibition [6]: 38.1202% | pACGCG formation, % inhibition [6]: 40.5036% | inhibition at 0.015625 µM (le-11, +1 site, 0.015625 uM, replicates, read-out: pACG formation, % inhibition): 38.1% | inhibition at 0.015625 µM (le-11, +1 site, 0.015625 uM, replicates, read-out: pACGC formation, % inhibition): 28% | inhibition at 0.015625 µM (le-11, +1 site, 0.015625 uM, replicates, read-out: pACGCG formation, % inhibition): 35% | pACG formation, % inhibition [7]: 56.5591% | pACGCG formation, % inhibition [7]: 63.5179% | inhibition at 0.03125 µM (le-11, +1 site, 0.03125 uM, replicates, read-out: pACG formation, % inhibition): 61.9% | inhibition at 0.03125 µM (le-11, +1 site, 0.03125 uM, replicates, read-out: pACGC formation, % inhibition): 28.5% | inhibition at 0.03125 µM (le-11, +1 site, 0.03125 uM, replicates, read-out: pACGCG formation, % inhibition): 63.6% | pACG formation, % inhibition [8]: 90.7902% | pACGCG formation, % inhibition [8]: 93.3045% | inhibition at 0.0625 µM (le-11, +1 site, 0.0625 uM, replicates, read-out: pACG formation, % inhibition): 93.3% | inhibition at 0.0625 µM (le-11, +1 site, 0.0625 uM, replicates, read-out: pACGC formation, % inhibition): 29.3% | inhibition at 0.0625 µM (le-11, +1 site, 0.0625 uM, replicates, read-out: pACGCG formation, % inhibition): 92.5% | pACG formation, % inhibition [9]: 92.6859% | pACGCG formation, % inhibition [9]: 94.8621% | inhibition at 0.125 µM (le-11, +1 site, 0.125 uM, replicates, read-out: pACG formation, % inhibition): 94.3% | inhibition at 0.125 µM (le-11, +1 site, 0.125 uM, replicates, read-out: pACGC formation, % inhibition): 30.8% | inhibition at 0.125 µM (le-11, +1 site, 0.125 uM, replicates, read-out: pACGCG formation, % inhibition): 94.8% | pACG formation, % inhibition [10]: 91.0112% | pACGCG formation, % inhibition [10]: 93.3897% | inhibition at 0.25 µM (le-11, +1 site, 0.25 uM, replicates, read-out: pACG formation, % inhibition): 94.2% | inhibition at 0.25 µM (le-11, +1 site, 0.25 uM, replicates, read-out: pACGC formation, % inhibition): 17.7% | inhibition at 0.25 µM (le-11, +1 site, 0.25 uM, replicates, read-out: pACGCG formation, % inhibition): 95.2% | pACG formation, % inhibition [11]: 89.7151% | pACGCG formation, % inhibition [11]: 94.5159%
